pIC50: −log10 of the molar value.
Columns and labels:
rats [1] = assay: Pedal withdrawal reflex (PWR) scoring during intravenous infusion (analgaesic potency); type: in vivo; details: rat, i.v. infusion, dose to PWR = 1, mean (SEM), read-out: Analgaesia potency: minimal dose for loss of pedal withdrawal reflex (SEM)
Method: (§1) The compounds were evaluated for their ability to anaesthetise rats when administered by continuous intravenous infusion, as reported previously. Compounds were administered to initially deliver 20 mg/kg/min (weight-adjusted flow) to achieve a pedal withdrawal reflex score (PWR = 1), then titrated to maintain loss of righting reflex (LORR) for 10 min. Three rats were used in each study, with each group of rats also acting as their own ketamine control. Data were collected on the total dose of drug (mg/kg), to achieve LORR and a PWR = 1, and on the time (in seconds, from cessation of the infusion) to recovery of righting reflex (RORR) (recovery from the hypnotic anaesthesia effect). Given the complexity of the experimental protocol, the total dose for LORR (Table 1) is very consistent, with ranges of only 1.5-fold within each group. The consistency of the post-sedation recovery times are expectedly lower, with ranges of about 2.5-fold. During recovery the rats were monitored for multiple signs of behavioural dysfunction (see biology section for details) and the sum of these scores (from 0 to 4, with 0 being no effect and 4 being severe dysfunction) is given in Table 2. IC50 values for inhibition of the NMDA receptor were conducted by Eurofins PanLabs, Taiwan.
(§2) All animal experiments were conducted at the Ruakura Research Centre, Hamilton, New Zealand, using experimental protocols reviewed and approved by the Ruakura Animal Ethics Committee (ethics ref 12604/13786). Adult female Sprague-Dawley rats of approximately 250–350 g were evaluated in both anaesthetic and analgaesic study protocols. All study agents were delivered by tail vein cannula connected via minibore extension tubing to mechanised infusion pump.
(§3) Following acquisition of baseline physiologic parameters (heart rate, respiratory rate, PWR, and righting reflex (RR)) ketamine or an experimental compound at 10mg/mL were commenced at a rate (weight-adjusted) to deliver 20 mg/kg/min. Dose to loss of righting reflex (LORR see below), and subsequent pedal withdrawal score of 1 (PWR see below) were recorded. Following attaining a PWR of 1, infusion rate was reduced to 6.7 mg/kg/min, then titrated in an up-and-down fashion as required to maintain both dorsal recumbency, and a PWR = 1, to 10 min before cessation. Each study used three rats, with each group of rats also acting as their own ketamine control. Prior odds/evens randomisation determined the order of study drug administration was determined by with a recovery interval of at least three hours afforded between experiments. Records of PWR and RR were made at one-minute intervals throughout, from cessation of infusion to return of righting reflex (RORR), and from cessation of infusion to the animals displaying independent locomotion (walk).
Pedal Withdrawal Reflex (PWR) scoring: Nociceptive testing in animals was conducted via 1 s application of constant pressure (firm digital pressure) over the forepaw of the animal. Pedal withdrawal reflex testing is primarily used to assess analgaesic effect, and responses are graded accordingly: 0, absent; 1, flicker; 2, moderate withdrawal; 3, fast withdrawal; 4, Fast withdrawal with cry/preceding apnoea (modified from).

rats [2] = assay: Behavioural dysfunction scoring during recovery from infusion; type: in vivo; details: rat, during wake-up; sum score 0 (no effect) to 4 (severe dysfunction); mean (SEM)
Method: as §1
Behavioural dysfunction scoring: This was undertaken according to the following table. Observations were made over a one minute interval every five minutes from cessation of infusion until return of normal behaviours (total score = 0). A score of 1 was accorded for any positive behavioural aberration for each of four categories (maximal score 4) during wake-up.
Duration of any behavioural aberration was recorded from RORR as follows: score 0 = nil; score1 = 0–120 s; score 2 = 121–300 s; score 3 = 301–600 s; score 4 = 600+ s.

[3] = target: N-methyl-D-aspartate receptor; assay: Inhibition of the NMDA receptor (Eurofins Panlabs Taiwan); type: binding; details: conducted by Eurofins Panlabs Taiwan
Method: as §1

rats [4] = assay: Anaesthetic assessment by continuous intravenous infusion in rats (loss and return of righting reflex); type: in vivo; details: iv; rat, i.v. infusion starting at 20 mg/kg/min; measure of sedative potency; mean (SEM); read-out: Sedation LORR: minimal dose for loss of righting reflex (SEM)
Method: as §1, §2, §3
Loss of Righting Reflex (LORR): This is primarily used to assess anaesthetic hypnotic effect. Righting reflex is judged absent when the rat fails to right from a position of dorsal recumbency to a position of sternal recumbency on three attempts performed in rapid succession. Dose to LORR is termed effective potency.

rats [5] = assay: Tail flick analgaesic assessment (composite tail flick latency, cTFL); type: in vivo; details: rat, 20 mg/kg i.v. infused over 10 min; AUC of %MPE-time curve 0-60 min; measure of analgaesic magnitude/duration
Method: Analgaesic assessment protocol: Animal preparation was in accord with the anaesthetic assessment protocol above. Three rats were used in each study. Following venous cannulation, animals underwent infusion of ketamine or experimental compound at 20 mg/kg over a ten minute interval. A tail flick analgaesia meter (Colombus Instruments, Colombus, Ohio) was then used to determine thermal pain sensitivity. Radiant heat was applied using a shutter-controlled lamp as a heat source focused on a spot located 6–8 cm from the tip of the tail. The intensity of the beam was set at a level producing basal latency times between 2 and 4 s. To prevent thermal tissue injury the cut off time as set at 10 s. A digital response time indicator with a resolution of 0.1s measured the time from initiation of stimulus until tail withdrawal (the flick; TFL).
The TFL response following infusion of control and study drugs was calculated as a percentage of the maximum possible effect (MPE) such that:%MPE = [TFL (post-drug) – TFL (pre-drug)/10 s – TFL (pre-drug)] × 100%(1)
TFL latency was recorded at 5 min intervals from cessation of study drug infusion (time zero) to 60 min. Individual %MPE-time curves were constructed for each animal, and the area under the curve (AUC) adopted as a composite measure of induced analgaesia (cTFL).

SMILES | minimal effective dose (rats [1]) [mg/kg] | Behavioural dysfunction Score (SEM): severity on recovery (rats [2]) | pIC50 [3] | minimal effective dose (rats [4]) [mg/kg] | Analgaesia cTFL (composite tail flick latency) (rats [5]) [s]
COC(=O)CCCCNC1(c2ccccc2OC(F)(F)F)CCCCC1=O (stereo not shown) [9b] | > 200 | 3 (1) | 3.92 | > 200 | 119
CC(C)OC(=O)CCNC1(c2cccc(Cl)c2)CCCCC1=O (stereo not shown) [10a] | 58 | 1 (0) | 3.79 | 67 | 332
COC(=O)CCCCNC1(c2cccc(Cl)c2)CCCCC1=O (stereo not shown) [10b] | 61 | 3 (1) | 4.89 | 51 | 54
Cc1cccc(C2(NCCC(=O)OC(C)C)CCCCC2=O)c1 (stereo not shown) [11a] | 50 | 2 (1) | 3.33 | 38 | 63
COC(=O)CCCCNC1(c2cccc(C)c2)CCCCC1=O (stereo not shown) [11b] | 43 | 2 (1) | 5.28 | 39 | 104
COc1cccc(C2(NCCC(=O)OC(C)C)CCCCC2=O)c1 (stereo not shown) [12a] | 83 | 2 (0) | 3.70 | 79 | 284
COC(=O)CCCCNC1(c2cccc(OC)c2)CCCCC1=O (stereo not shown) [12b] | 58 | 3 (1.4) | 5.25 | 50 | 210
CC(C)OC(=O)CCNC1(c2cccc(C(F)(F)F)c2)CCCCC1=O (stereo not shown) [13a] | > 200 | 0 (0) | 3.64 | > 200 | 208
COC(=O)CCCCNC1(c2cccc(C(F)(F)F)c2)CCCCC1=O (stereo not shown) [13b] | > 200 | 0 (0) | 3.76 | > 200 | 8
CC(C)OC(=O)CCNC1(c2cccc(OC(F)(F)F)c2)CCCCC1=O (stereo not shown) [14a] | > 200 | 0 (0) | 3.68 | > 200 | 274
COC(=O)CCCCNC1(c2cccc(OC(F)(F)F)c2)CCCCC1=O (stereo not shown) [14b] | > 200 | 0 (0) | 4.24 | > 200 | 444
CC(C)OC(=O)CCNC1(c2ccc(Cl)cc2)CCCCC1=O (stereo not shown) [15a] | > 200 | 2 (1) | 3.89 | 99 | 491
COC(=O)CCCCNC1(c2ccc(Cl)cc2)CCCCC1=O (stereo not shown) [15b, Methyl 5-((1-(4-chlorophenyl)-2-oxocyclohexyl)amino)pentanoate] | 100 | 3 (1) | 4.00 | 89 | 576
Cc1ccc(C2(NCCC(=O)OC(C)C)CCCCC2=O)cc1 (stereo not shown) [16a] | 52 | 1 (0) | 3.79 | 47 | 650
COC(=O)CCCCNC1(c2ccc(C)cc2)CCCCC1=O (stereo not shown) [16b] | 55 | 1 (0) | 4.64 | 50 | 0
COc1ccc(C2(NCCC(=O)OC(C)C)CCCCC2=O)cc1 (stereo not shown) [17a] | > 200 | 0 (0) | 3.40 | > 200 | 167
CC(C)OC(=O)CCNC1(c2ccc(C(F)(F)F)cc2)CCCCC1=O (stereo not shown) [18a] | > 200 | 0 (0) | 3.36 | > 200 | 412
COC(=O)CCCCNC1(c2ccc(C(F)(F)F)cc2)CCCCC1=O (stereo not shown) [18b] | > 200 | 0 (0) | 3.33 | > 200 | 37
CC(C)OC(=O)CCNC1(c2ccc(OC(F)(F)F)cc2)CCCCC1=O (stereo not shown) [19a] | > 200 | 0 (0) | 3.50 | > 200 | 166
COC(=O)CCCCNC1(c2ccc(OC(F)(F)F)cc2)CCCCC1=O (stereo not shown) [19b] | > 200 | 0 (0) | 3.22 | > 200 | 194
